Test results as given in patent US9833497B2, “Human originated EGF domain proteins and use of the same” (CHENGDU SOURCEBIO LIMITED-LIABILITY COMPANY, priority 2013, dated 2017).

Assays:
Format in all cases: cell-based
E. coli DH5α = assay: Antibacterial activity: MIC and growth curve against E. coli DH5α in 96-well plate; conditions: minimal inhibitory concentration against E. coli DH5α; 96-well plate, 5×10^5 CFU/mL, 37° C., judged after 8 h
How it was run: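 Log-phase bacteria (OD600 ~0.5) resuspended in LB at 5×10^5 CFU/mL, exposed to recombinant protein at 50, 25, 12.5 μg/mL final in triplicate, 37 °C shaking at 175 rpm. OD600 read every 30 min; MIC is lowest concentration showing no growth.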

E. coli BL21 = assay: MIC against Gram-negative bacteria: E. coli BL21
How it was run: (§1)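 Two-fold serial dilutions of each purified human EGF domain protein, three replicate wells per level, were combined with bacteria at a final 5×10^5 CFU/mL in LB. Cultures were shaken at 175 rpm, 37° C. The MIC was taken as the minimum concentration preventing growth.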

Pseudomonas aeruginosa = assay: MIC against Gram-negative bacteria: Pseudomonas aeruginosa
How it was run: as §1

Klebsiella pneumonia = assay: MIC against Gram-negative bacteria: Klebsiella pneumonia
How it was run: as §1

Enterobacter cloacae = assay: MIC against Gram-negative bacteria: Enterobacter cloacae
How it was run: as §1

Aeromonas hydrophila = assay: MIC against Gram-negative bacteria: Aeromonas hydrophila
How it was run: as §1

Citrobacter diversus = assay: MIC against Gram-negative bacteria: Citrobacter diversus
How it was run: as §1

Moraxella catarrhalis = assay: MIC against Gram-negative bacteria: Moraxella catarrhalis
How it was run: as §1

Proteus mirabilis = assay: MIC against Gram-negative bacteria: Proteus mirabilis
How it was run: as §1

Proteus vulgaris = assay: MIC against Gram-negative bacteria: Proteus vulgaris
How it was run: as §1

Serratia marcescens = assay: MIC against Gram-negative bacteria: Serratia marcescens
How it was run: as §1

[1] = 96-well plate, 5×10^5 CFU/mL, 37° C., 10 h
[2] = E. coli BL21, 10 h cultivation at 37° C., 5×10^5 CFU/mL
[3] = P. aeruginosa, 10 h cultivation at 37° C., 5×10^5 CFU/mL
[4] = K. pneumonia, 10 h cultivation at 37° C., 5×10^5 CFU/mL
[5] = E. cloacae, 10 h cultivation at 37° C., 5×10^5 CFU/mL
[6] = A. hydrophila, 10 h cultivation at 37° C., 5×10^5 CFU/mL
[7] = C. diversus, 10 h cultivation at 37° C., 5×10^5 CFU/mL
[8] = M. catarrhalis, 10 h cultivation at 37° C., 5×10^5 CFU/mL
[9] = P. mirabilis, 10 h cultivation at 37° C., 5×10^5 CFU/mL
[10] = P. vulgaris, 10 h cultivation at 37° C., 5×10^5 CFU/mL
[11] = S. marcescens, 10 h cultivation at 37° C., 5×10^5 CFU/mL

PRT636 (DINECEHPGLCGPQGECLNTEGSFHCVCQQGFSISADGRTCE; listed as Homo sapiens)
MIC (E. coli DH5α): 12.5 µg/mL | MIC E. coli BL21 (E. coli BL21; [1]): 25 µg/mL | MIC P. aeruginosa (Pseudomonas aeruginosa; [1]): 50 µg/mL | MIC K. pneumonia (Klebsiella pneumonia; [1]): 25 µg/mL | MIC E. cloacae (Enterobacter cloacae; [1]): 12.5 µg/mL | MIC A. hydrophila (Aeromonas hydrophila; [1]): 25 µg/mL | MIC C. diversus (Citrobacter diversus; [1]): 50 µg/mL | MIC M. catarrhalis (Moraxella catarrhalis; [1]): 25 µg/mL | MIC P. mirabilis (Proteus mirabilis; [1]): 12.5 µg/mL | MIC P. vulgaris (Proteus vulgaris; [1]): 25 µg/mL | MIC S. marcescens (Serratia marcescens; [1]): 50 µg/mL

PRT846 (CNCSVVGSLNVNRCNQTTGQCECRPGYQGLHCETCKEGFYLNYTSGLCQP; listed as Homo sapiens)
MIC (E. coli DH5α): 25 µg/mL | MIC (μg/mL) E. coli BL21 (E. coli BL21; [2]): 12.5 µg/mL | MIC (μg/mL) P. aeruginosa (Pseudomonas aeruginosa; [3]): 25 µg/mL | MIC (μg/mL) K. pneumonia (Klebsiella pneumonia; [4]): 50 µg/mL | MIC (μg/mL) E. cloacae (Enterobacter cloacae; [5]): 12.5 µg/mL | MIC (μg/mL) A. hydrophila (Aeromonas hydrophila; [6]): 12.5 µg/mL | MIC (μg/mL) C. diversus (Citrobacter diversus; [7]): 12.5 µg/mL | MIC (μg/mL) M. catarrhalis (Moraxella catarrhalis; [8]): 12.5 µg/mL | MIC (μg/mL) P. mirabilis (Proteus mirabilis; [9]): 12.5 µg/mL | MIC (μg/mL) P. vulgaris (Proteus vulgaris; [10]): 12.5 µg/mL | MIC (μg/mL) S. marcescens (Serratia marcescens; [11]): 12.5 µg/mL

PRT933 (HRDPCEKNRCQNGGTCVAQAMLGKATCRCASGFTGEDCQ; listed as Homo sapiens)
MIC (E. coli DH5α): 12.5 µg/mL | MIC (E. coli BL21; E. coli BL21, 10 h cultivation at 37° C.): 25 µg/mL | MIC (Pseudomonas aeruginosa; P. aeruginosa, 10 h cultivation at 37° C.): 12.5 µg/mL | MIC (Klebsiella pneumonia; K. pneumonia, 10 h cultivation at 37° C.): 50 µg/mL | MIC (Enterobacter cloacae; E. cloacae, 10 h cultivation at 37° C.): 25 µg/mL | MIC (Aeromonas hydrophila; A. hydrophila, 10 h cultivation at 37° C.): 12.5 µg/mL | MIC (Citrobacter diversus; C. diversus, 10 h cultivation at 37° C.): 25 µg/mL | MIC (Moraxella catarrhalis; M. catarrhalis, 10 h cultivation at 37° C.): 50 µg/mL | MIC (Proteus mirabilis; P. mirabilis, 10 h cultivation at 37° C.): 25 µg/mL | MIC (Proteus vulgaris; P. vulgaris, 10 h cultivation at 37° C.): 12.5 µg/mL | MIC (Serratia marcescens; S. marcescens, 10 h cultivation at 37° C.): 50 µg/mL

PRT802 (SNRCQCQNGALCNPITGACVCAAGFRGWRCE; listed as Homo sapiens)
MIC (E. coli DH5α): 12.5 µg/mL | MIC (μg/mL) E. coli BL21 (E. coli BL21; [2]): 12.5 µg/mL | MIC (μg/mL) P. aeruginosa (Pseudomonas aeruginosa; [3]): 25 µg/mL | MIC (μg/mL) K. pneumonia (Klebsiella pneumonia; [4]): 12.5 µg/mL | MIC (μg/mL) E. cloacae (Enterobacter cloacae; [5]): 12.5 µg/mL | MIC (μg/mL) A. hydrophila (Aeromonas hydrophila; [6]): 12.5 µg/mL | MIC (μg/mL) C. diversus (Citrobacter diversus; [7]): 25 µg/mL | MIC (μg/mL) M. catarrhalis (Moraxella catarrhalis; [8]): 12.5 µg/mL | MIC (μg/mL) P. mirabilis (Proteus mirabilis; [9]): 25 µg/mL | MIC (μg/mL) P. vulgaris (Proteus vulgaris; [10]): 25 µg/mL | MIC (μg/mL) S. marcescens (Serratia marcescens; [11]): 12.5 µg/mL

PRT240 (NINECEVEPCKNGGICTDLVANYSCECPGEFMGRNCQ; listed as Homo sapiens)
MIC (E. coli DH5α): 25 µg/mL | MIC (μg/mL) E. coli BL21 (E. coli BL21; [2]): 12.5 µg/mL | MIC (μg/mL) P. aeruginosa (Pseudomonas aeruginosa; [3]): 25 µg/mL | MIC (μg/mL) K. pneumonia (Klebsiella pneumonia; [4]): 12.5 µg/mL | MIC (μg/mL) E. cloacae (Enterobacter cloacae; [5]): 25 µg/mL | MIC (μg/mL) A. hydrophila (Aeromonas hydrophila; [6]): 12.5 µg/mL | MIC (μg/mL) C. diversus (Citrobacter diversus; [7]): 25 µg/mL | MIC (μg/mL) M. catarrhalis (Moraxella catarrhalis; [8]): 12.5 µg/mL | MIC (μg/mL) P. mirabilis (Proteus mirabilis; [9]): 100 µg/mL | MIC (μg/mL) P. vulgaris (Proteus vulgaris; [10]): 100 µg/mL | MIC (μg/mL) S. marcescens (Serratia marcescens; [11]): 12.5 µg/mL

PRT763 (ALDRCALNTHGCEHICVNDRSGSYHCECYEGYTLNEDRKTCS; listed as Homo sapiens)
MIC (E. coli DH5α): 25 µg/mL | MIC (μg/mL) E. coli BL21 (E. coli BL21; [2]): 50 µg/mL | MIC (μg/mL) P. aeruginosa (Pseudomonas aeruginosa; [3]): 12.5 µg/mL | MIC (μg/mL) K. pneumonia (Klebsiella pneumonia; [4]): 25 µg/mL | MIC (μg/mL) E. cloacae (Enterobacter cloacae; [5]): 12.5 µg/mL | MIC (μg/mL) A. hydrophila (Aeromonas hydrophila; [6]): 25 µg/mL | MIC (μg/mL) C. diversus (Citrobacter diversus; [7]): 12.5 µg/mL | MIC (μg/mL) M. catarrhalis (Moraxella catarrhalis; [8]): 12.5 µg/mL | MIC (μg/mL) P. mirabilis (Proteus mirabilis; [9]): 12.5 µg/mL | MIC (μg/mL) P. vulgaris (Proteus vulgaris; [10]): 50 µg/mL | MIC (μg/mL) S. marcescens (Serratia marcescens; [11]): 25 µg/mL
